Data as given in US8404713B2, “Quinolinone derivatives as PARP inhibitors” (Janssen Pharmaceutica NV, priority 2007, dated 2013).

What was measured:
[1] = test system: ischemia and reperfusion of the heart or skeletal muscle; conditions: rabbits, cited from earlier work
[2] = test system: colitis induced by intraluminal trinitrobenzene sulfonic acid; conditions: rats, colitis by trinitrobenzene sulfonic acid in 50% ethanol; cited from earlier work
[3] = target: T1, TANK-2 enzyme (Homo sapiens, UniProt Q9H2K2); test: In vitro scintillation proximity assay (SPA) for TANK-2 inhibitory activity; type: biochemical; conditions: auto-poly(ADP-ribosyl)ation, Ni flash plates; 96-well results if available, otherwise 384-well; tested between 10^-5 M and 3x10^-8 M; read-out: in vitro SPA assay TANK-2 pIC50 (converted)
T1 construct: made in house
T1 sequence (Q9H2K2 1-1166): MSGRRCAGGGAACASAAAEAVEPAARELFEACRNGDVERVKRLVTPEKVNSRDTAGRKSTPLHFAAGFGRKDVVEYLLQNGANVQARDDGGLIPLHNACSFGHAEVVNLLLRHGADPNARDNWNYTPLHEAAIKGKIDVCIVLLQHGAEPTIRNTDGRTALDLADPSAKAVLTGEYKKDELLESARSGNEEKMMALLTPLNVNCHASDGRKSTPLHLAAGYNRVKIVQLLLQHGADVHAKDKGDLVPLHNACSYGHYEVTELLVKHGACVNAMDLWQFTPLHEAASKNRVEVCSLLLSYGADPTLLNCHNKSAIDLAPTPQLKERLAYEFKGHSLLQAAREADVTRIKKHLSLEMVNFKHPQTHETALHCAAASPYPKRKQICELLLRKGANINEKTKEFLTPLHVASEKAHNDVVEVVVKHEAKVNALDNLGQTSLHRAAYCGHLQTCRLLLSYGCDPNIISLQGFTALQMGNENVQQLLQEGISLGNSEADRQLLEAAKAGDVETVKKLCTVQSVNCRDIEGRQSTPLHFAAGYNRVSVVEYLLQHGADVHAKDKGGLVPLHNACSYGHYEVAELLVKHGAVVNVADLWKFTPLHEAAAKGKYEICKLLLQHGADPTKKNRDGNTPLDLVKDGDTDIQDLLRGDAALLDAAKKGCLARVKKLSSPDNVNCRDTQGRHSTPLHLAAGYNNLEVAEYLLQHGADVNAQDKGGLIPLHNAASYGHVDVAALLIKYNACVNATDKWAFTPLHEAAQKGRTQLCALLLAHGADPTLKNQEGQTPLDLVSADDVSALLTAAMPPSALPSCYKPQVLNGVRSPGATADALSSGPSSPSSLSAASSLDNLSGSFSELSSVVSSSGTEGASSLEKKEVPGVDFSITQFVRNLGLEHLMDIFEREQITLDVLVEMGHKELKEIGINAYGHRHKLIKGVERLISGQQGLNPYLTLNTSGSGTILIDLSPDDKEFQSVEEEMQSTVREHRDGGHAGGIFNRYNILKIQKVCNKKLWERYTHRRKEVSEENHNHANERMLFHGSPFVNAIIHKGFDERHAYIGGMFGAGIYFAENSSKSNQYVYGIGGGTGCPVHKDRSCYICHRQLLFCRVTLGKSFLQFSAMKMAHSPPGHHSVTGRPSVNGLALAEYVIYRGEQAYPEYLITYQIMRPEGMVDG
Experimental: C.2. In Vitro Scintillation Proximity Assay (SPA) for TANK-2 Inhibitory Activity
Compounds of the present invention were tested in an in vitro assay based on SPA technology with Ni Flash plates (96 or 384 well).
In principle, the assay relies upon SPA technology for the detection of auto-poly(ADP-ribosyl)ation of TANK-2 protein using [^3H]-nicotinamide adenine dinucleotide ([^3H]-NAD^+) as ADP-ribosyl donor.
A stock solution of 100 nM [^3H]-NAD^+/NAD (0.1 mCi/ml, supplier: Perkin Elmer) and 0.25 mM NAD (Sigma) was made in assay buffer (60 mM Tris/HCl, pH 7.4; 0.9 mM DTT; 6 mM MgCl2). The TANK-2 enzyme was produced as described in EP1238063. 60 μl of assay buffer, together with 1 μl of compound in DMSO, 20 μl of [^3H]-NAD^+/NAD and 20 μl of TANK-2 enzyme (final concentration 8 μg/ml) was added per well into a 96-well Ni-coated flash plate (Perkin Elmer). After incubation of the mixture for 120 min. at room temperature, the reaction was terminated by adding 60 μl of stopsolution (42.6 mg NAD in 6 ml H2O). The plates were covered with a plate sealer and placed in a TopCountNX™ (Packard) for scintillation counting. Values were expressed as counts per minute (cpm). For each experiment, controls (containing TANK-2 enzyme and DMSO without compound), a blank incubation (containing DMSO but no TANK-2 enzyme or compound) and samples (containing TANK-2 enzyme and compound dissolved in DMSO) were run in parallel. All compounds tested were dissolved and eventually further diluted in DMSO. […] In each test, the blank value was subtracted from both the control and the sample values. The control sample represented maximal TANK-2 enzyme activity. For each sample, the amount of cpm was expressed as a percentage of the mean cpm value of the controls. When appropriate, IC50-values (concentration of the drug, needed to reduce the TANK-2 enzyme activity to 50% of the control) were computed using linear interpolation between the experimental points just above and below the 50% level. Herein the effects of test compounds are expressed as pIC50 (the negative log value of the IC50-value). As reference compounds, 3-aminobenzamide and 4-amino-1,8-naphtalimide were included to validate the SPA assay. Herein the assay was described using 96-well plates. In the assay using 384-well plates the same final concentrations were used and volumes were adapted.

[4] = target: T2, Human PARP-1 enzyme (Homo sapiens, UniProt P09874); test: In vitro scintillation proximity assay (SPA) for PARP-1 inhibitory activity; type: biochemical; conditions: nicked DNA activated PARP-1, [3H]-NAD+, biotinylated histones; tested between 10^-5 M and 3x10^-9 M; read-out: in vitro SPA assay PARP-1 pIC50 (converted)
T2 construct: purchased Trevigen
T2 sequence (P09874 whole entry): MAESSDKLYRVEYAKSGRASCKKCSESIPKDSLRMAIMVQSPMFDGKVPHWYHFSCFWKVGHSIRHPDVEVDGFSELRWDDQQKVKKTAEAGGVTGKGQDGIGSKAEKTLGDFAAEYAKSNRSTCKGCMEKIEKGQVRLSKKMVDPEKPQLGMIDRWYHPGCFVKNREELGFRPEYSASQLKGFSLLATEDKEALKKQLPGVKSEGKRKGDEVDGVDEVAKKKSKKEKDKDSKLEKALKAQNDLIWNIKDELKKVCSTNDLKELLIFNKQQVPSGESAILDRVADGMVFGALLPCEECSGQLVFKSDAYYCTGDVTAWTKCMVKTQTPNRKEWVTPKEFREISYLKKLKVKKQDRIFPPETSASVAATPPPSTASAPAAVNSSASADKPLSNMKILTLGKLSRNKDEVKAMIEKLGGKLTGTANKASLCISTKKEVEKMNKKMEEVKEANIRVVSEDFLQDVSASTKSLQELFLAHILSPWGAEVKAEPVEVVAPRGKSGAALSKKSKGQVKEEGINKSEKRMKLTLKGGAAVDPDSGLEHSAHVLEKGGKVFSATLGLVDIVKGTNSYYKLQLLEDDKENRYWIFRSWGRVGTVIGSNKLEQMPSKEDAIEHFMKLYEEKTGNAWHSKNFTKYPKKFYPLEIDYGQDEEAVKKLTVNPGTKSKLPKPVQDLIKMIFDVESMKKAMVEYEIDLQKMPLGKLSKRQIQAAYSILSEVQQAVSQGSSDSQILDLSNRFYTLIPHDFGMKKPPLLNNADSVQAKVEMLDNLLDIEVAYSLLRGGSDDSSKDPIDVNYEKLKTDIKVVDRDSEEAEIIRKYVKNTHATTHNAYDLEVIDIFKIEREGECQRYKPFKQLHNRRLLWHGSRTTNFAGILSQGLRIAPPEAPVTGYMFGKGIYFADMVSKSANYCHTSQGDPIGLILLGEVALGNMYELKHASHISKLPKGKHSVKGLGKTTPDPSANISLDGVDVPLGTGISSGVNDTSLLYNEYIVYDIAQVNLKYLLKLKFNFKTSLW
Experimental: C.1. In Vitro Scintillation Proximity Assay (SPA) for PARP-1 Inhibitory Activity
Compounds of the present invention were tested in an in vitro assay based on SPA technology (proprietary to GE healthcare).
In principle, the assay relies upon the well established SPA technology for the detection of poly(ADP-ribosyl)ation of biotinylated target proteins, i.e histones. This ribosylation is induced using nicked DNA activated PARP-1 enzyme and [^3H]-nicotinamide adenine dinucleotide ([^3H]-NAD^+) as ADP-ribosyl donor.
Histones (type II-A, supplier: Sigma) were biotinylated using the biotinylation kit of Amersham and stored aliquoted at −20° C. A stock solution of 100 mg/ml SPA poly(vinyl toluene) (PVT) beads (supplier: Amersham) was made in PBS. A stock solution of 61.6 nM [^3H]-NAD^+ was made by adding [^3H]-NAD^+ (0.1 mCi/ml, supplier: Perkin Elmer) to incubation buffer (50 mM Tris/HCl, pH 8; 0.2 mM DTT; 4 mM MgCl2). A solution of 4 mM NAD^+ (supplier: Sigma) was made. Human PARP-1 enzyme was obtained from Trevigen. Biotinylated histones and PVT-SPA beads were mixed and pre-incubated for 30 min. at room temperature. PARP-1 enzyme (concentration was lot dependent) was mixed with the nicked DNA and the mixture was pre-incubated for 30 min. at 4° C. Equal parts of this histones/PVT-SPA beads solution and PARP-1 enzyme/DNA solution were mixed and 75 μl of this mixture together with 1 μl of compound in DMSO and 25 μl of [^3H]-NAD^+ was added per well into a 96-well microtiterplate. The final concentrations in the incubation mixture were 2 μg/ml for the biotinylated histones, 2 mg/ml for the PVT-SPA beads, 0.25 μg/ml for the nicked DNA and between 0.1-0.2 μg/ml for the PARP-1 enzyme. After incubation of the mixture for 20 min. at room temperature, the reaction was terminated by adding 100 μl of 4 mM NAD^+ in water (final concentration 2 mM) and plates were mixed. The beads were sedimented by centrifugation (10 min, 800 rpm). and plates transferred to a TopCountNXT™ (Packard) for scintillation counting, values were expressed as counts per minute (cpm). For each experiment, controls (containing PARP-1 enzyme and DMSO without compound), a blank incubation (containing DMSO but no PARP-1 enzyme, no DNA or compound) and samples (containing PARP-1 enzyme, DNA and compound dissolved in DMSO) were run in parallel. All compounds tested were dissolved and eventually further diluted in DMSO. A dose-response curve was made wherein the compounds were tested at concentrations between 10^−5M and 3×10^−9M. In each test, the blank value was subtracted from both the control and the sample values. The control sample represented maximal PARP-1 enzyme activity. For each sample, the amount of cpm was expressed as a percentage of the mean cpm value of the controls. When appropriate, IC50-values (concentration of the drug, needed to reduce the PARP-1 enzyme activity to 50% of the control) were computed using linear interpolation between the experimental points just above and below the 50% level. Herein the effects of test compounds are expressed as pIC50 (the negative log value of the IC50-value). As a reference compound, 4-amino-1,8-naphthalimide was included to validate the SPA assay.

| Structure (SMILES) | IC50 [3] [nM] | melting point [°C] | IC50 [4] [nM] | reduction in infarct size ([1]; single injection 1 mg/kg) | effect on inflammatory response, morphology and energetic status of the distal colon [2] | reduction in infarct size in the heart ([1]; single injection 10 mg/kg, one minute before occlusion or one minute before reperfusion) |
| --- | --- | --- | --- | --- | --- | --- |
| Oc1cccc2c(O)nccc12 [1,5-dihydroxyisoquinoline] | – | – | – | 38-48% | – | – |
| NC(=O)c1cccc(N)c1 [3-amino-benzamide] | – | – | – | – | reduced the inflammatory response and restored the morphology and the energetic status of the distal colon | 32-42% |
| CCOC(=O)c1cnc(N2CCN(Cc3ccc4cc(CC)c(=O)[nH]c4c3)CC2)nc1 [Compound 11] | 36.1 | 235 | 51.3 | – | – | – |
| CCc1cc2ccc(C(C(C)C)N3CCN(c4ccc(C#N)cn4)CC3)cc2[nH]c1=O (stereo not drawn) [Compound 13] | 269 | 135 | 3.94 | – | – | – |
| CCc1cc2ccc(C(C)NCCc3c[nH]c4ccccc34)cc2[nH]c1=O (stereo not drawn) [Compound 14] | 428 | 170 | 70.1 | – | – | – |
| CCc1cc2ccc(CN3CCN(c4ncc(C(N)=O)cn4)CC3)cc2[nH]c1=O [Compound 16] | 36.2 | > 250 | 7.4 | – | – | – |
| Cc1cc2ccc(C(C)N3CCN(c4ccccc4C#N)CC3)cc2[nH]c1=O (stereo not drawn) [Compound 20] | 940 | 190 | 1.08 | – | – | – |

Second part, led by results:

| IC50 [3] [nM] | melting point [°C] | IC50 [4] [nM] | Structure (SMILES) | reduction in infarct size ([1]; single injection 1 mg/kg) | effect on inflammatory response, morphology and energetic status of the distal colon [2] | reduction in infarct size in the heart ([1]; single injection 10 mg/kg, one minute before occlusion or one minute before reperfusion) |
| --- | --- | --- | --- | --- | --- | --- |
| 225 | 163 | 201 | CCc1cc2ccc(C(O)CN3CCOCC3)cc2[nH]c1=O (stereo not drawn) [Compound 4] | – | – | – |
| 1900 | 242 | 0.938 | CCc1cc2ccc(CN3CCN(c4ccccc4)CC3)cc2[nH]c1=O [Compound 6] | – | – | – |
| > 10000 | 225 | 1.52 | Cc1cc2ccc(CN3CCC(c4ccccc4)CC3)cc2[nH]c1=O [Compound 7] | – | – | – |
| 3100 | 172 | 109 | CCc1cc2ccc(C(CO)N3CCC(Cc4ccccc4)CC3)cc2[nH]c1=O (stereo not drawn) [Compound 9] | – | – | – |
| 454 | 255 | 108 | CCc1cc2ccc(C(=O)N3CCc4ccccc4C3)cc2[nH]c1=O [Compound 10] | – | – | – |
| 2150 | 168 | 77.4 | CCc1cc2ccc(CNC3CCN(c4ncccn4)CC3)cc2[nH]c1=O [Compound 15] | – | – | – |
| > 10000 | 198 | 0.251 | COc1ccccc1N1CCN(Cc2ccc3cc(C)c(=O)[nH]c3c2)CC1 [Compound 23] | – | – | – |
| 4470 | 80 | 3.02 | CCc1cc2c(OC)cc(CN3CCN(c4ccccc4OC)CC3)cc2[nH]c1=O [Compound 64] | – | – | – |
| 2140 | 133 | 0.759 | Cc1cc2ccc(C(C)N3CCCC3)cc2[nH]c1=O (stereo not drawn) [Compound 68] | – | – | – |
